From patent US8859584B2, “TRPV1 antagonists” (AbbVie Inc., priority 2011, dated 2014)
pIC50: −log10 of the molar value.

Columns and labels:
human TRPV1 [1] = molecular target: T1, human TRPV1 (Homo sapiens, UniProt Q8NER1); assay: Acid Activation Assay (pH 5.0, FLIPR intracellular Ca2+, recombinant HEK293 cells); format: cell-based; settings: percentage of maximal pH 5.0-induced response remaining; HEK293 hTRPV1; max concentration 37.5 μM
T1 construct: expressed in transfected cells
Method in brief: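 HEK293 cells stably expressing recombinant hTRPV1 were loaded with calcium dye for 90-120 min at 25° C and pre-treated with compound for 3 min before a pH 5.0 (DPBS/MES) challenge. Peak FLIPR fluorescence over baseline is given as percentage of the maximal pH 5.0-induced response.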

human TRPV1 [2] = molecular target: T1, human TRPV1; assay: Capsaicin Activation Assay (FLIPR intracellular Ca2+, recombinant HEK293 cells); format: cell-based; settings: recombinant HEK293 cells expressing hTRPV1; 50 nM capsaicin; read-out: human TRPV1 capsaicin IC50

T1 sequence (Q8NER1 whole entry): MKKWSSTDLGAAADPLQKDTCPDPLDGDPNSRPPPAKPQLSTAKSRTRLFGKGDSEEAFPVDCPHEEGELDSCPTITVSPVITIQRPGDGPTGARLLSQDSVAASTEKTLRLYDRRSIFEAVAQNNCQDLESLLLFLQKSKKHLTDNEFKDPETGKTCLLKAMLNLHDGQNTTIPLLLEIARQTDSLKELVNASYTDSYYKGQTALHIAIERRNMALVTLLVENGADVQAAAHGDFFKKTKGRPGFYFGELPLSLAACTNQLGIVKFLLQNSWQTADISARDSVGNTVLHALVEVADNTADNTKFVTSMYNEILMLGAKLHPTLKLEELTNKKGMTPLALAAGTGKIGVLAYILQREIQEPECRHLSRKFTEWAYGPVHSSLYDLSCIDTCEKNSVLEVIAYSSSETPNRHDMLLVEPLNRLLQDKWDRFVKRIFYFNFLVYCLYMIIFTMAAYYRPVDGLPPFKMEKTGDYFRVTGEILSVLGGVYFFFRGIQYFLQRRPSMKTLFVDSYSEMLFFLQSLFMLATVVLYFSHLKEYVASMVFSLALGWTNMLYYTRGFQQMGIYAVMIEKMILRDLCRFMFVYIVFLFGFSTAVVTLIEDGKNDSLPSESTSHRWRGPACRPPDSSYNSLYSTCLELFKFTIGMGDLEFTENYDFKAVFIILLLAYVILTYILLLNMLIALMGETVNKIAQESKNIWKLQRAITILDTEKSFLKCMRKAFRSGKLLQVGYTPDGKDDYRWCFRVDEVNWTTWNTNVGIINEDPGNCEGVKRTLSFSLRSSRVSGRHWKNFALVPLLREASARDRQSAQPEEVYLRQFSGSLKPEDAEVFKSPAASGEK

| SMILES | human TRPV1 H+ (max % remain) (human TRPV1 [1]) [%] | pIC50 (human TRPV1 [2]) |
| --- | --- | --- |
| O=C(Nc1cccc2c1CC(O)C2)NC1CC(c2ccccc2)Oc2ccccc21 (stereo not drawn) [Example 118, 1-(2-hydroxy-2,3-dihydro-1H-inden-4-yl)-3-(2-phenyl-3,4-dihydro-2H-chromen-4-yl)urea] | 67 | 7.21 |
| O=C(Nc1cccc2c1CC(O)C2)NC1CC(c2ccc(F)cc2)Oc2ccccc21 (stereo not drawn) [Example 119, 1-[2-(4-fluorophenyl)-3,4-dihydro-2H-chromen-4-yl]-3-(2-hydroxy-2,3-dihydro-1H-inden-4-yl)urea] | 72 | 6.37 |
| O=C(Nc1cccc2c1CC(O)C2)NC1CC(c2ccccc2Cl)Oc2ccccc21 (stereo not drawn) [Example 120, 1-[2-(2-chlorophenyl)-3,4-dihydro-2H-chromen-4-yl]-3-(2-hydroxy-2,3-dihydro-1H-inden-4-yl)urea] | 51 | 5.80 |
| O=C(Nc1cccc2c1CC(O)C2)NC1CC(c2ccc(C(F)(F)F)cc2)Oc2ccccc21 (stereo not drawn) [Example 121, 1-(2-hydroxy-2,3-dihydro-1H-inden-4-yl)-3-{2-[4-(trifluoromethyl)phenyl]-3,4-dihydro-2H-chromen-4-yl}urea] | 57 | 6.17 |
| COc1ccc2c(c1)OC(c1ccc(Cl)cc1)CC2NC(=O)Nc1cccc2c1CC(O)C2 (stereo not drawn) [Example 122, 1-[2-(4-chlorophenyl)-7-methoxy-3,4-dihydro-2H-chromen-4-yl]-3-(2-hydroxy-2,3-dihydro-1H-inden-4-yl)urea] | 14 | 6.15 |
| O=C(Nc1cccc2c1CC(O)C2)NC1CC2(CCCCC2)Oc2ccccc21 (stereo not drawn) [Example 123, 1-(3,4-dihydrospiro[chromene-2,1′-cyclohexan]-4-yl)-3-(2-hydroxy-2,3-dihydro-1H-inden-4-yl)urea] | 61 | 6.85 |
| O=C(Nc1cccc2c1CC(O)C2)NC1c2ccccc2CC1Cc1ccc(Cl)c(Cl)c1 (stereo not drawn) [Example 124, 1-[2-(3,4-dichlorobenzyl)-2,3-dihydro-1H-inden-1-yl]-3-(2-hydroxy-2,3-dihydro-1H-inden-4-yl)urea] | 63 | < 4.42 |
| O=C(Nc1cccc2c1CC(O)C2)NC1c2ccccc2CC1Cc1ccccc1 (stereo not drawn) [Example 125, 1-(2-benzyl-2,3-dihydro-1H-inden-1-yl)-3-(2-hydroxy-2,3-dihydro-1H-inden-4-yl)urea] | 83 | 5.46 |
| C[C@@]1(C(F)F)C[C@@H](NC(=O)Nc2cccc3c2C[C@H](O)C3)c2ccccc2O1 [Example 126, 1-[(2S,4R)-2-(difluoromethyl)-2-methyl-3,4-dihydro-2H-chromen-4-yl]-3-[(2R)-2-hydroxy-2,3-dihydro-1H-inden-4-yl]urea] | 88 | 5.85 |
| C[C@]1(C(F)F)C[C@@H](NC(=O)Nc2cccc3c2C[C@H](O)C3)c2ccccc2O1 [Example 127, 1-[(2R,4R)-2-(difluoromethyl)-2-methyl-3,4-dihydro-2H-chromen-4-yl]-3-[(2R)-2-hydroxy-2,3-dihydro-1H-inden-4-yl]urea] | 62 | 6.59 |
| O=C(Nc1cccc2c1C[C@H](O)C2)N[C@@H]1CC2(CCCC2)Oc2ccccc21 [Example 128, 1-[(4R)-3,4-dihydrospiro[chromene-2,1′-cyclopentan]-4-yl]-3-[(2R)-2-hydroxy-2,3-dihydro-1H-inden-4-yl]urea] | 75 | 6.39 |
| O=C(Nc1cccc2c1C[C@H](O)C2)N[C@@H]1CC(CF)(CF)Oc2cc(F)ccc21 [Example 129, 1-[(4R)-7-fluoro-2,2-bis(fluoromethyl)-3,4-dihydro-2H-chromen-4-yl]-3-[(2R)-2-hydroxy-2,3-dihydro-1H-inden-4-yl]urea] | 53 | 6.44 |
